Source: ChEMBL document CHEMBL1201862, “PubChem BioAssay data set” (2004)
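All cell lines were grown in 96-well plates and treated with compound for 48 hours. GI50 marks 50% less growth.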 Activity calls are given as the source filed them. Cut-off read from the data, not from the text of the source: active = GI50 up to about 1.1 µM and inactive = higher.

Key:
Experiment in all cases: DTP human tumour cell line panel, 48 h
UACC-257 = tested on: UACC-257
MDA-N = tested on: MDA-N
Hs-578T = tested on: Hs-578T
TK-10 = tested on: TK-10
M14 = tested on: M14
U-251 = tested on: U-251
A549 = tested on: A549
IGROV-1 = tested on: IGROV-1
UO-31 = tested on: UO-31
OVCAR-3 = tested on: OVCAR-3
BT-549 = tested on: BT-549
T47D = tested on: T47D
MCF7 = tested on: MCF7
SK-MEL-28 = tested on: SK-MEL-28
CAKI-1 = tested on: CAKI-1
UACC-62 = tested on: UACC-62
SW-620 = tested on: SW-620
HCT-116 = tested on: HCT-116
SF-268 = tested on: SF-268
MDA-MB-231 = tested on: MDA-MB-231

Measured: GI50

Cc1ccc([N+](=O)[O-])c2c(NCC(O)CO)ccnc12 (stereo unspecified)
inactive: UACC-257 36.4 µM | MDA-N 42.3 µM | Hs-578T 7.71 µM | TK-10 48.2 µM | M14 51.9 µM | U-251 93.8 µM | A549 25.4 µM | IGROV-1 43.2 µM | UO-31 74.3 µM | OVCAR-3 36.1 µM | BT-549 47 µM | T47D 49.7 µM | MCF7 32.1 µM | SK-MEL-28 > 100 µM | CAKI-1 54 µM | UACC-62 30.3 µM | SW-620 49.2 µM | HCT-116 44.4 µM | SF-268 60.4 µM

N#CC(C#N)/N=N/c1ccc(-c2nc3ccccc3o2)cc1
inactive: UACC-257 4.41 µM | MDA-N 17.2 µM | Hs-578T 42 µM | TK-10 11 µM | M14 15.2 µM | U-251 14.3 µM | MDA-MB-231 17.8 µM | A549 21 µM | IGROV-1 19.4 µM | UO-31 13 µM | OVCAR-3 4.19 µM | BT-549 12.1 µM | T47D 4.32 µM | MCF7 11.1 µM | SK-MEL-28 6.12 µM | UACC-62 6.05 µM | SW-620 11.2 µM | HCT-116 5.55 µM | SF-268 27.5 µM

O=C(NCCNCCCNC(=O)c1cc(-c2ccccc2)nc2ccccc12)c1cccc(O)c1O
inactive: UACC-257 4.01 µM | Hs-578T 13.8 µM | TK-10 1.63 µM | M14 1.46 µM | U-251 2.87 µM | MDA-MB-231 4.23 µM | A549 4.72 µM | IGROV-1 7.82 µM | UO-31 3.3 µM | OVCAR-3 2.38 µM | BT-549 2.56 µM | T47D 3.3 µM | MCF7 3.3 µM | SK-MEL-28 1.72 µM | CAKI-1 5.4 µM | UACC-62 2.27 µM | SW-620 4.47 µM | HCT-116 1.47 µM | SF-268 2.86 µM

COc1ccc(-n2c(C)nc3ccc(NC4OCC(OC(C)=O)C(OC(C)=O)C4OC(C)=O)cc3c2=O)cc1 (stereo unspecified)
inactive: UACC-257 > 100 µM | MDA-N > 100 µM | Hs-578T > 100 µM | TK-10 > 100 µM | U-251 > 100 µM | MDA-MB-231 > 100 µM | IGROV-1 > 100 µM | UO-31 > 100 µM | OVCAR-3 > 100 µM | BT-549 > 100 µM | T47D > 100 µM | MCF7 > 100 µM | SK-MEL-28 > 100 µM | CAKI-1 > 100 µM | UACC-62 > 100 µM | SW-620 > 100 µM | HCT-116 > 100 µM | SF-268 > 100 µM

COc1cccc2cc(C(=O)Nc3ccccc3)c(=N)oc12
inactive: UACC-257 > 100 µM | MDA-N > 100 µM | Hs-578T 10.4 µM | TK-10 > 100 µM | M14 > 100 µM | U-251 67.6 µM | MDA-MB-231 13 µM | A549 > 100 µM | IGROV-1 49.5 µM | UO-31 > 48.1 µM | OVCAR-3 > 100 µM | BT-549 > 100 µM | T47D 6.01 µM | MCF7 5.93 µM | SK-MEL-28 > 100 µM | UACC-62 62.4 µM | SW-620 > 100 µM | HCT-116 24.3 µM | SF-268 > 85.9 µM

OC(/C(=N/c1ccccc1)c1ccccc1)c1ccccc1 (stereo unspecified)
inactive: UACC-257 2.17 µM | Hs-578T 2.29 µM | TK-10 2.72 µM | M14 4.8 µM | U-251 4.1 µM | MDA-MB-231 13.8 µM | A549 11.3 µM | IGROV-1 9.46 µM | UO-31 18 µM | OVCAR-3 2.66 µM | BT-549 2.68 µM | T47D 5.62 µM | MCF7 5.62 µM | SK-MEL-28 2.66 µM | CAKI-1 11.9 µM | UACC-62 3.57 µM | SW-620 10.5 µM | HCT-116 5.37 µM | SF-268 4.99 µM

O=C1NC(S(=O)(=O)O)=NNC12c1ccccc1-c1ccccc12
inactive: UACC-257 > 10 µM | MDA-N > 10 µM | Hs-578T > 10 µM | TK-10 > 10 µM | M14 > 10 µM | MDA-MB-231 > 10 µM | A549 > 10 µM | IGROV-1 > 10 µM | UO-31 > 10 µM | BT-549 > 10 µM | T47D 4.16 µM | MCF7 > 10 µM | SK-MEL-28 > 10 µM | CAKI-1 > 10 µM | UACC-62 > 10 µM | SW-620 > 10 µM | HCT-116 > 10 µM | SF-268 > 10 µM
